Measured values as given in article PMC7083565, “In vitro metabolism, reaction phenotyping, enzyme kinetics, CYP inhibition and induction potential of ataluren” (Pharmacology Research & Perspectives, 2020).
pIC50: −log10 of the molar value.

Tests used:
Assay type in all cases: in vitro ADME
CYP2C19 = target: T1, CYP2C19 (Homo sapiens, UniProt P33261); experiment: CYP inhibition in pooled human liver microsomes: CYP2C19; details: CYP2C19, HLM, estimated, concentrations up to 400 μmol/L
T1 construct: tissue XenoTech LLC, Celsis-In Vitro Technologies, or Tissue Transformation Technologies; host or cells: pooled human liver microsomes
Method: (§1) The final concentration of each probe substrate was near the experimentally determined Km value for the indicated enzyme. Ataluren or prototypical CYP inhibitors (positive controls) was incubated (n = 3) with probe substrates and HLM in 100 mmol/L phosphate buffer (pH 7.4) in a total volume of approximately 0.25 mL, and the reactions were initiated by the addition of 1 mmol/L NADPH at 37°C. The reactions were carried out using previously established conditions to ensure linearity with respect to protein concentration and incubation time (Table S1). Incubations were stopped with the addition of ice‐cold acetonitrile. Metabolite formation in incubations with test compound and control inhibitors was assessed with LC‐MS/MS methods for each of the reaction products as described in Table S2. […] After 7 minutes incubation at 37°C, the reaction was stopped by the addition of ice‐cold acetonitrile, followed by membrane plate filtration. The filtrates were used for LC‐MS/MS analysis. […] IC50 values were determined by nonlinear regression with GraphPad Prism 5 using the following four‐parameter sigmoidal‐logistic IC50 equation: Fit=background+range-background/[1+I/IC50^slope]
(§2) Where, I is the inhibitor concentration, and background was set to 0 and range to 100, as percent of control values are utilized. K i was determined by nonlinear regression with GraphPad Prism 5 using best fit model.

[1] = Plasma protein binding (ultrafiltration), human
Method: (§3) [^14C]‐Ataluren, at 50, 500, 5000, and 50 000 ng/mL or 0.175, 1.75, 17.5, and 175 µM, in male mouse, rat, dog, monkey, and human plasma, was incubated (n = 3) at 37°C for approximately 15 minutes, transferred into Centrifree® Micropartition Units (30 000 Da molecular weight cutoff, 1 mL capacity; Amicon Inc), and centrifuged at 37°C and 2000 g for approximately 10 minutes so that the amount of the sample filtered was approximately ≤ 20% of the total volume. After centrifugation, the entire ultrafiltrate was weighed and analyzed for radioactivity using liquid scintillation counting. The percent bound = (1‐Cu/Cm)×100, where Cu is the concentration of radioactivity in the ultrafiltrate and Cm is the concentration of radioactivity in the plasma before centrifugation.

[2] = Glucuronidation in pooled human intestinal microsomes; details: intestinal microsomes 1 mg protein/mL, 10 μmol/L, 60 minutes, n = 1
Method: Ataluren at 10 μmol/L, was incubated (n = 1) with pooled human intestinal, lung, and kidney microsomes (1 mg protein/mL, preactivated with alamethicin) to evaluate if ataluren‐O‐1β‐acyl glucuronide will be formed in these extrahepatic tissues. Incubation mixtures and procedures were essentially the same as the above. The supernatant fractions were analyzed by LC‐MS/MS to quantify the formation of ataluren‐O‐1β‐acyl glucuronide and the loss of ataluren. Detailed LC‐MS/MS conditions are summarized in LC‐MS/MS Analysis section. […] The ataluren acyl glucuronide formation rate after 60 minutes incubation was calculated using the amount of metabolite formed (pmol) divided by the protein amount in the incubation sample ([…]) and the incubation time (60 minutes).
Quantification of ataluren loss and ataluren‐O‐1β‐acyl glucuronide formation was carried out with an LC‐MS/MS system, which consisted of two Shimadzu LC‐10ADvp pumps, a SPD10‐AVP UV/Vis detector, a Shimadzu SILHTA autosampler, a Shimadzu DGU‐14A degasser, and a Sciex API 4000 QTRAP mass spectrometer equipped with a Turbo Ionspray ionization source that operated in positive ionization mode. […] Ion transitions monitored were at m/z 285 → m/z 123 for ataluren, m/z 461 → m/z 285 for ataluren acyl glucuronide, and m/z 289 → m/z 127 for ataluren‐D4 (internal standard), respectively.

[3] = Plasma protein binding (ultrafiltration), dog; details: male, beagle, 50 to 50 000 ng/mL, mean ± SD, n = 3, read-out: percentage protein binding (converted)
Method: as §3

CYP2D6 = target: T2, CYP2D6 (Homo sapiens, UniProt P10635); experiment: CYP inhibition in pooled human liver microsomes: CYP2D6; details: CYP2D6, HLM, estimated, concentrations up to 400 μmol/L
T2 construct: tissue XenoTech LLC, Celsis-In Vitro Technologies, or Tissue Transformation Technologies; host or cells: pooled human liver microsomes
Method: as §1, §2

CYP2C8 = experiment: CYP induction in primary human hepatocytes: CYP2C8; details: male, 48 h
Method: Human hepatocytes isolated from three Caucasian males were transferred to 48‐well collagen‐coated plates at 0.14 × 10^6 cells/well in planting media for attachment. After attachment, planting media was replaced with sandwich media and the cells were incubated until clusters were established. […] The incubation solutions were aspirated and replaced with freshly prepared incubation solutions containing ataluren for an additional 24 hours. […] The incubation solutions were then aspirated and 150 µL of K‐H buffer containing CYP substrates were added. […] Metabolite formation in incubations with test compounds and control inhibitors was assessed with validated LC‐MS/MS methods for each of the reaction products as described in Table S2. Enzymatic activity for each CYP was calculated using the absolute amount of metabolite formed (pmol) divided by hepatocytes in the incubation (million cells) and the incubation time (minute). The relative fold induction in enzymatic activity was calculated by comparing the rate of metabolite formation for treatment groups to that of the solvent control group (reported as vehicle control%) or positive control group (reported as positive control%).

T1 sequence (P33261 whole entry): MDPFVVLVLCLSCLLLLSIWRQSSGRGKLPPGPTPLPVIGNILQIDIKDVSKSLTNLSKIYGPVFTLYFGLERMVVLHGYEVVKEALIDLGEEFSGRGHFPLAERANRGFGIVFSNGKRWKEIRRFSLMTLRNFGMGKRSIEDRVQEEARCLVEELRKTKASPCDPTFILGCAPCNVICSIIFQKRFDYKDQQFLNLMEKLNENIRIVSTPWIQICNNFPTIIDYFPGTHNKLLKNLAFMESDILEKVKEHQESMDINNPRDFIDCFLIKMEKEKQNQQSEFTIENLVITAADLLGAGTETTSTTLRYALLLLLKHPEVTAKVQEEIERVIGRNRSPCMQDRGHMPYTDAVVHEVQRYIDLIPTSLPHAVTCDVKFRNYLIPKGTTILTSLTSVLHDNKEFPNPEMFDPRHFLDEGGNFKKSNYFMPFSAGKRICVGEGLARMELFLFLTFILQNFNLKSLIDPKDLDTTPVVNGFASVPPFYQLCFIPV
T2 sequence (P10635 whole entry): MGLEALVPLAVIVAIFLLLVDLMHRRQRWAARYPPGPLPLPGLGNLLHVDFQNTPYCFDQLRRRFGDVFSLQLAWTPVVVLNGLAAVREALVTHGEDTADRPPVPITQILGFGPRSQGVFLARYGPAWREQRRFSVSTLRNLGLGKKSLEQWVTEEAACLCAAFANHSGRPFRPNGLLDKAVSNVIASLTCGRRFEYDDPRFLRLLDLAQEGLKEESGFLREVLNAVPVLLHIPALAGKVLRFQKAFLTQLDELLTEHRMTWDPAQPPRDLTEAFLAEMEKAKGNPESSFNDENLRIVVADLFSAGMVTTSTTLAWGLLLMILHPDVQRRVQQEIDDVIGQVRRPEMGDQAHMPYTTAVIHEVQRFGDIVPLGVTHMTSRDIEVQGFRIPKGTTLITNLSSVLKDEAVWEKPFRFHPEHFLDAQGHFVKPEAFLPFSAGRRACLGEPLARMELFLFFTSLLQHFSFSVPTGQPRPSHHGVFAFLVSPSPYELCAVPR

## O=C(O)c1cccc(-c2noc(-c3ccccc3F)n2)c1 [ataluren, Ataluren]
CYP2C19
  pIC50: < 3.40
[1]; as measured
  free fraction in human plasma: 0.4%
[1]; male, 50 to 50 000 ng/mL, mean ± SD, n = 3, read-out: percentage protein binding (converted)
  fraction unbound at 15 min: 0.004
[2]
  ataluren loss: 34.4%
[3]
  fraction unbound at 15 min: 0.025
CYP2D6
  pIC50: < 3.40
CYP2C8; 4 µM
  Vehicle control %, Mean: 93.0%
CYP2C8; 400 µM
  Vehicle control %, Mean: 67.6%
